This note sets out measurements from US9839642B2, “Beta-tetrazolyl-propionic acids as metallo-beta-lactamase inhibitors” (priority 2014, dated 2017).

For test [1], the system named is Escherichia coli expressing NDM-1 (CLB30016). Kind of test: Antibiotic potentiation activity: synergistic concentration (MITC95) with imipenem, growth by OD600. Type of test: cell-based. To be noted: 95% inhibition of bacterial growth, strain CLB30016. In short, it runs like this: (§1)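 Strains grown overnight at 35° C, resuspended in saline, diluted 1:100 into 1.1×CAMHB; imipenem at 1 μg/ml or 4 μg/ml with test compound 200 μM to 0.195 μM. Incubated 22 hours to 24 hours at 35° C, OD600 read; MITC95 is lowest compound concentration inhibiting 95% of growth.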

For test [2], the system named is Serratia marcescens expressing IMP-1 (CL5741). The test is described as above. Type of test: cell-based. An outline of the steps: as §1
The test system of test [3] is Escherichia coli expressing NDM-1 (CLB30005). The description is as above. Type of test: cell-based. In short, it runs like this: as §1
Test [4] deals with Klebsiella pneumoniae expressing VIM-1 (IHMA599644). Described as above. Type of test: cell-based. An outline of the steps: as §1
The target in the next test is IMP-1 (Serratia marcescens, UniProt P52699). As to the kind of experiment: Enzyme activity: determination of IC50, fluorescence assay with CCF2-FA substrate. Type of test: biochemical. The settings on record: CCF2-FA 1.25 μM, 2 hours at 25° C., read-out: IMP1 IC50. An outline of the steps:
(§2)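 Enzyme (1 pM NDM-1, 2 pM IMP-1, 30 pM VIM-1) incubated with inhibitor (20 to 0.00063 μM) and 1.25 μM CCF2-FA in 100 mM KH2PO4 pH 7, 0.005% Tween-20, 10 μM ZnSO4, 2 h at 25 °C. Fluorescence read at 460 nm (ex 405 nm); IC50 by 4-parameter fit.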

The next test deals with NDM-1 (Klebsiella pneumoniae, UniProt C7C422). The test is described as above. Type of test: biochemical. The settings on record: CCF2-FA 1.25 μM, 2 hours at 25° C., read-out: NDM1 IC50. An outline of the steps: as §2
Sequence of NDM-1 (C7C422 29-270, looked up, species assumed): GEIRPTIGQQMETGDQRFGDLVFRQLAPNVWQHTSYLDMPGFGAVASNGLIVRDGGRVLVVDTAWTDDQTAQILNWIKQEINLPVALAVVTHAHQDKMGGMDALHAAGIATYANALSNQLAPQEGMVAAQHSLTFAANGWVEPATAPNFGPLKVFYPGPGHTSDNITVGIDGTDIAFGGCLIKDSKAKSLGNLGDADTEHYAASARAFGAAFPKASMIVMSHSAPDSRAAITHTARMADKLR
The next test addresses VIM-1 (Pseudomonas aeruginosa, UniProt A0A0F7KYQ8). The description is as above. Type of test: biochemical. The settings on record: CCF2-FA 1.25 μM, 2 hours at 25° C., read-out: VIM1 IC50. An outline of the steps: as §2
[5] abbreviates: 95% inhibition of bacterial growth, strain CL5741.
[6] abbreviates: 95% inhibition of bacterial growth, strain CLB30005.
[7] abbreviates: 95% inhibition of bacterial growth, strain IHMA599644.
Setting [8] is: S. marcescens CL5741 (IMP-1), 95% inhibition of growth.
[9] abbreviates: E. coli CLB30005 (NDM-1), 95% inhibition of growth.
Setting [10] is: K. pneumoniae IHMA599644 (VIM-1), 95% inhibition of growth.

Like-named read-outs stand apart in the source and are kept apart here.

Sequence of IMP-1 (P52699 19-246, looked up, species assumed): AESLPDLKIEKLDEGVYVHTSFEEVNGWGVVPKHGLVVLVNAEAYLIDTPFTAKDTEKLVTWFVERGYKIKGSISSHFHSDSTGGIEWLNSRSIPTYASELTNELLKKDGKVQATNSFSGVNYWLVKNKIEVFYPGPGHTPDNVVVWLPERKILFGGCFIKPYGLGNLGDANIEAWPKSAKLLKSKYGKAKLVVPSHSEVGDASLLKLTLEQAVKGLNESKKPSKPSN

By IC50 is commonly meant the midpoint of a concentration-inhibition curve. As to `CCC[C@H](C(=O)O)[C@H](Cc1ccc(-c2ccc(N3CCNCC3)nc2)cc1)c1nn[nH]n1` [Example 199, (2S)-2-[(1S)-2-[4-(6-piperazin-1-ylpyridin-3-yl)phenyl]-1-(2H-tetrazol-5-yl)ethyl]pentanoic acid], the “NDM1 EC30016 MITC95” value in test [1] was 9.4 µM. For the same compound, in test [2] (setting [5]), the “IMP1 SM5741 MITC95” value was determined as 17 µM. Besides, the “NDM1 EC30005 MITC95” value in test [3] (setting [6]) amounted to 4.7 µM. Besides, in test [4] (setting [7]), the “VIM1 KP599644 MITC95” value turned out to be 31 µM. Further, the IC50 amounted to 110 nM on IMP-1 (enzyme 2 pM), 48 nM at NDM-1 (enzyme 1 pM) and 7.4 nM on VIM-1 (enzyme 30 pM).
For the compound `CCC[C@H](C(=O)O)[C@H](Cc1ccc(-c2ccc(CN)cc2)cc1)c1nn[nH]n1` [Example 209, (2S)-2-[(1S)-2-[4′-(aminomethyl)biphenyl-4-yl]-1-(2H-tetrazol-5-yl)ethyl]pentanoic acid], the “NDM1 EC30016 MITC95” value in test [1] is 6.2 µM. For the same compound, the “IMP1 SM5741 MITC95” value in test [2] (setting [5]) was found to be 4.3 µM. For the same compound, the “NDM1 EC30005 MITC95” value in test [3] (setting [6]) was determined as 2.3 µM. For the same compound, in test [4] (setting [7]), the “VIM1 KP599644 MITC95” value is 12.5 µM. Also, the figures for the IC50 on IMP-1 (enzyme 2 pM), on NDM-1 (enzyme 1 pM) and at VIM-1 (enzyme 30 pM) were 110 nM, 84 nM and 14 nM, respectively.
For `CCC[C@H](C(=O)O)[C@H](Cc1ccc(CN2CCN(C)CC2)cc1)c1nn[nH]n1` [Example 251, (2S)-2-[(1S)-2-{4-[(4-methylpiperazin-1-yl)methyl]phenyl}-1-(2H-tetrazol-5-yl)ethyl]pentanoic acid], in test [2] (setting [8]), the “IMP1 SM5741 MITC95” value was determined as 38 µM. For the same compound, the “NDM1 EC30005 MITC95” value in test [3] (setting [9]) is 8.3 µM. The “VIM1 KP599644 MITC95” value in test [4] (setting [10]) was found to be 75 µM. Moreover, the IC50 at IMP-1 (IMP-1 enzyme 2 pM) was 1300 nM; at NDM-1 (NDM-1 enzyme 1 pM) it was 330 nM; at VIM-1 (VIM-1 enzyme 30 pM), 430 nM.
Consider `CCC[C@H](C(=O)O)[C@H](Cc1ccc(COCCN2CCOCC2)cc1)c1nn[nH]n1` [Example 252, (2S)-2-[(1S)-2-{4-[(2-morpholin-4-ylethoxy)methyl]phenyl}-1-(2H-tetrazol-5-yl)ethyl]pentanoic acid], for which, in test [2] (setting [8]), the “IMP1 SM5741 MITC95” value was found to be 150 µM. The “NDM1 EC30005 MITC95” value in test [3] (setting [9]) was determined as 15 µM. Moreover, the “VIM1 KP599644 MITC95” value in test [4] (setting [10]) was 50 µM. Besides, the figures for the IC50 on IMP-1 (IMP-1 enzyme 2 pM), on NDM-1 (NDM-1 enzyme 1 pM) and on VIM-1 (VIM-1 enzyme 30 pM) were 800 nM, 180 nM and 89 nM, respectively.
Turning to `CCC[C@H](C(=O)O)[C@H](Cc1ccc(CCN2CCCC2=O)cc1)c1nn[nH]n1` [Example 253, (2S)-2-[(1S)-2-{4-[2-(2-oxopyrrolidin-1-yl)ethyl]phenyl}-1-(2H-tetrazol-5-yl)ethyl]pentanoic acid], the “IMP1 SM5741 MITC95” value in test [2] (setting [8]) turned out to be 38 µM. Moreover, in test [3] (setting [9]), the “NDM1 EC30005 MITC95” value turned out to be 12.5 µM. Also, the “VIM1 KP599644 MITC95” value in test [4] (setting [10]) was determined as 50 µM. Moreover, the IC50 amounted to 97 nM at IMP-1 (IMP-1 enzyme 2 pM), 34 nM on NDM-1 (NDM-1 enzyme 1 pM) and 9.1 nM at VIM-1 (VIM-1 enzyme 30 pM).
Take `CCC[C@H](C(=O)O)[C@H](Cc1ccc(CCCO)cc1)c1nn[nH]n1` [Example 254, (2S)-2-[(1S)-2-[4-(3-hydroxypropyl)phenyl]-1-(2H-tetrazol-5-yl)ethyl]pentanoic acid]: the “IMP1 SM5741 MITC95” value in test [2] (setting [8]) came to 31 µM. For the same compound, the “NDM1 EC30005 MITC95” value in test [3] (setting [9]) was found to be 5.2 µM. In addition, the “VIM1 KP599644 MITC95” value in test [4] (setting [10]) came to 25 µM. Moreover, the IC50 on IMP-1 (IMP-1 enzyme 2 pM) stood at 180 nM; at NDM-1 (NDM-1 enzyme 1 pM), 37 nM; at VIM-1 (VIM-1 enzyme 30 pM), 9 nM.
Turning to `CCC[C@H](C(=O)O)[C@H](Cc1ccc(CCC(O)CO)cc1)c1nn[nH]n1` (stereo partly drawn) [Example 255, (2S)-2-[(1S)-2-[4-(3,4-dihydroxybutyl)phenyl]-1-(2H-tetrazol-5-yl)ethyl]pentanoic acid], in test [2] (setting [8]), the “IMP1 SM5741 MITC95” value was 18.8 µM. For the same compound, in test [3] (setting [9]), the “NDM1 EC30005 MITC95” value is 10.4 µM. Moreover, the “VIM1 KP599644 MITC95” value in test [4] (setting [10]) came to 50 µM. Further, the IC50 came out at 190 nM at IMP-1 (IMP-1 enzyme 2 pM), 44 nM at NDM-1 (NDM-1 enzyme 1 pM) and 12 nM at VIM-1 (VIM-1 enzyme 30 pM).
Regarding `CCC[C@H](C(=O)O)[C@H](Cc1ccc(CCN2CCCCC2=O)cc1)c1nn[nH]n1` [Example 256, (2S)-2-[(1S)-2-{4-[2-(2-oxopiperidin-1-yl)ethyl]phenyl}-1-(2H-tetrazol-5-yl)ethyl]pentanoic acid], the “IMP1 SM5741 MITC95” value in test [2] (setting [8]) is 6.2 µM. In addition, the “NDM1 EC30005 MITC95” value in test [3] (setting [9]) was 10.4 µM. Also, the “VIM1 KP599644 MITC95” value in test [4] (setting [10]) amounted to 150 µM. The IC50 on IMP-1 (IMP-1 enzyme 2 pM) was found to be 45 nM; at NDM-1 (NDM-1 enzyme 1 pM), 27 nM; at VIM-1 (VIM-1 enzyme 30 pM), 16 nM.
As to `CCC[C@H](C(=O)O)[C@H](Cc1ccc(C[C@@H]2CCCOC2)cc1)c1nn[nH]n1` [Example 257, (2S)-2-[(1S)-2-{4-[(3S)-tetrahydro-2H-pyran-3-ylmethyl]phenyl}-1-(2H-tetrazol-5-yl)ethyl]pentanoic acid], in test [2] (setting [8]), the “IMP1 SM5741 MITC95” value is 6.2 µM. For the same compound, in test [3] (setting [9]), the “NDM1 EC30005 MITC95” value was found to be 7.3 µM. The “VIM1 KP599644 MITC95” value in test [4] (setting [10]) came to 200 µM. Moreover, the IC50 came to 33 nM on IMP-1 (IMP-1 enzyme 2 pM), 13 nM at NDM-1 (NDM-1 enzyme 1 pM) and 14 nM at VIM-1 (VIM-1 enzyme 30 pM).
